Reference: US20230114123A1, “METHOD OF STIMULATING ASYMMETRIC DIVISION OF SATELLITE STEM CELLS” (Ottawa Hospital Research Institute, priority 2017, published 2023)

Assays:
[1] = system: dystrophin-deficient satellite stem cells; test: EDL myofiber culture, satellite stem cell divisions (mdx Myf5-Cre/R26R-eYFP); format: cell-based, mouse; conditions: for Average number of asymmetric divisons/fiber / Proportion of YFP- divisions that are asymmetric divisions: mdx myofibers, 42 h of culture
Experimental: EDL fiber Culture and siRNA Transfection. Myofiber culture was performed as described in Dumont, N. A., et al. “Dystrophin expression in muscle stem cells regulates their polarity and asymmetric division.” Nat. Med. (2015) 21:1455-63, which is incorporated herein by reference. Briefly, EDL were carefully dissected and incubated in DMEM with 2% L-glutamine, 4.5% glucose, and 110 mg/mL sodium pyruvate (Gibco) containing 0.2% collagenase I (Sigma) for 45 min. Myofibers were isolated using gentle trituration with a glass pipet. Myofibers were cultured for 36, 42, or 72 h in DMEM containing 20% FBS (Wisent), 1% chick embryo extract (MP Biomedicals), and 2.5 ng/ml bFGF (Cedarlane). For pharmacological inhibition, Lapatinib ditosylate (1 mM in DMSO; Santa
Cruz Biotechnology), PTP1b inhibitor CAS 765317-72-4 (10 mM in DMSO; Santa Cruz Biotechnologies) was added to the culture medium for a final concentration of 1 μM or 10 μM, respectively; equal dilution of DMSO was used as vehicle control.

satellite cell divisions = test: FDB myofiber screening method validation (YFP(-) divisions); format: cell-based, mouse; conditions: for percentage of YFP(-) divisions that were symmetric divisions: control 62% (Wnt7a experiment), control 45% (EGF / PTP1b experiment); for percentage of YFP(-) divisions that were asymmetric divisions: control treated cells 55%
Text: EGFR pathway activators may be identified in a method of screening potential activators. The method includes visualizing isolated, cultured, and stained Flexor Digitorum Brevis (FDB) myofibers from Myf5-Cre/ROSA26-YFP mice in a plurality of Z-stack planes to create a projection image. Muscle satellite cells are identified in the projection image based on Pax7 expression. Of the identified muscle satellite cells: (i) satellite stem cells are identified based on the absence of YFP expression, and (ii) committed satellite progenitor cells are identified based on yellow fluorescence protein (YFP) expression. A potential EGFR pathway activator is administered to the FDB myofibers. The number of symmetric divisions of satellite myogenic cells, identified by the production of two YFP(+) satellite cells, are counted; the number of symmetric satellite stem cell divisions, identified by the production of two YFP(−) satellite cells, are counted; and the number of asymmetric satellite cell divisions, identified by the production of one YFP(+) and one YFP(−) satellite cell, are counted. The potential EGFR pathway activator is identified as an EGFR pathway activator when the percent of YFP(−) divisions that are asymmetric divisions is greater than the corresponding percent in a control sample. The expression “YFP(−) divisions” refers to all cell divisions where one of the daughter cells is YFP(−).
Identification of EGFR pathway activators. Flexor Digitorum brevis (FDB) fibers were isolated from Myf5-Cre/Rosa-YFP mice and digested in 0.25% Collagenase Type I (Sigma) in DMEM (Dulbecco's modified Eagle's medium; high glucose, L-glutamine with 110 mg/ml sodium pyruvate) for 2.5-3 h. Myofibers were dissociated using gentle trituration with a glass pipette.
Myofibers are cultured at 37° C., 5% CO2 for 42 h in myofiber culture media (DMEM supplemented with 20% FBS(Wisent), 1% Chicken Embryo extract (MP Biomediacals), 1% Penicillin/Streptomycin (Cederlane) and 2.5 ng/ml basic Fibroblast Growth Factor (Cedarlane).
Myofibers are first fixed in 2% Paraformaldehyde (PFA) for 5 mins. Myofibers are blocked for 1-2 h in 1% Bovine Serum Albumin, 0.5% TritonX-100, 5% HS and 0.01% Sodium Azide. Primary antibodies are applied in blocking solution for 2 h at room temperature or at 4° C. overnight. Myofibers are washed with PBS and stained with appropriate fluorescently labeled secondary antibodies (Alexa Fluor 488, 546) for 1 hat room temperature. Following washing with PBS, fiber nuclei are stained with DAPI for 5 min. The following antibodies are used: mouse anti-Pax7 (Developmental Studies Hybridoma Bank (DSHB)), chicken anti-GFP (cat. no. ab13970, Abcam).
Satellite cells are focused based on Channel 3 (DAPI) staining. Autofocus is performed by sampling seven (7) z-stacks taken at […] intervals for an extended depth of field of 85.3 μm.
Z-stack images were consolidated to create a projection image with all satellite cells in focus. Image acquisition of a projection image for analysis was created from seven (7) Z-stack images taken at 6.5 μm intervals, for an extended depth of field of 45.5 μm at 200 (Objective 20×) magnification. The projection direction was centered, where the median stacks fall within the center of each myofiber. […]
Potential satellite cells were first identified based on Channel 1 (Pax7) signal, and separated from other satellite cells based on intensity of fluorescence between cells. […]

Compound	Average number of asymmetric divisons/fiber [1]	Proportion of YFP- divisions that are asymmetric divisions [1] [%]	percentage of YFP(-) divisions that were symmetric divisions (satellite cell divisions) [%]	percentage of YFP(-) divisions that were asymmetric divisions (satellite cell divisions) [%]	increase in the rate of asymmetric division, mdx satellite cells ([1]; 42 h culture, recombinant EGF vs vehicle, FIG. 4A) [%]	increase in the absolute number of asymmetric satellite stem cell divisions, mdx ([1]; 42 h of myofiber culture, FIG. 4B) [fold]
CCc1oc2cc(S(=O)(=O)Nc3ccc(S(=O)(=O)Nc4nccs4)cc3)ccc2c1C(=O)c1cc(Br)c(O)c(Br)c1 [PTP1b inhibitor, 3-(3,5-dibromo-4-hydroxy-benzoyl)-2-ethyl-benzofuran-6-sulfonicacid-(4-(thiazol-2-ylsulfamyl)-phenyl)-amide, reference compound]	0.463	33.33	33	67	–	–
EGF: human recombinant EGF protein (Life Technologies), direct activator of the EGFR pathway	0.436	34.60	29	71	67	2
